# Results: US8975263B2, “Phenylxanthene derivatives” (Daiichi Sankyo Company, Limited, priority 2013, dated 2015)
# Test system: C57BL/6J mice
# Assay: Oral glucose tolerance test
# Type: in vivo
# Conditions: male C57BL/6J mice, fasted overnight; oral gavage 10 mg/kg; solvent 0.5% MC; glucose 3 g/kg orally 30 minutes after compound; area under the curve of blood glucose level relative to control group
# Description: Commercially available mice (C57BL/6J mice; male; 8 to 12 weeks old when used; distributed by Charles River Laboratories Japan, Inc.) were used.
# After acclimatization with freely feeding (FR-2, Funabashi Farm Co., Ltd.) for one week or more, the mice were fasted overnight and then used for the test. A 0.5% methylcellulose (Wako Pure Chemical Industries, Ltd.) solution (0.5% MC) containing a test compound at a concentration of 1 mg/ml and a mixed solution (PG:Tween) of propylene glycol (80 v/v %, Nacalai Tesque, Inc.) and Tween 80 (20 v/v %, Nacalai Tesque, Inc.) containing a test compound at a concentration of 2 mg/ml were prepared for administration to the mice. The prepared solution was administered by oral gavage to four or five mice in each group at a dose of 10 mg/kg as the test compound. For a control group, a 0.5% methylcellulose solution (dose: 10 ml/kg) or a mixed solution of propylene glycol and Tween 80 (dose: 5 ml/kg) was orally administered to mice. An oral glucose tolerance test was carried out by administering a glucose solution (Otsuka Glucose Solution 50%; Otsuka Pharmaceutical Factory, Inc.) orally at a dose of 3 g/kg to the mice 30 minutes after administration of the test compound.
# Blood was collected from the tail vein of each mouse immediately before administration of the test compound (T0), […] after administration of the test compound (T1), and 30 minutes (T2) and 90 minutes (T3) after oral glucose loading. The blood glucose level was measured using a blood glucose level measuring apparatus (ACCU-CHEK Aviva; Roche Diagnostics, K.K.). The blood glucose level T1 was analyzed as a value obtained 30 minutes after administration of the compound and immediately before glucose loading. According to the following formula, the area under the curve of blood glucose level was calculated, and thereafter, the blood glucose lowering rate (%) was calculated as a value relative to the control group. The area under the curve of blood glucose level=[(blood glucose level T0+blood glucose level T1)×30]÷2+[(blood glucose level T1+blood glucose level T2)×30]÷2+[(blood glucose level T2+blood glucose level T3)×60]÷2 Blood glucose lowering rate(%)=[1−(the area under the curve of blood glucose level for the test compound group/the area under the curve of blood glucose level for the control group)]×100
row,Compound,Blood glucose lowering rate (%)
1,"COc1ccc(-c2ccc(C)c(C(=O)NS(C)(=O)=O)n2)cc1C1C2=C(CC(C)(C)CC2=O)OC2=C1C(=O)CC(C)(C)C2 [Example 31, 6-[4-Methoxy-3-(3,3,6,6-tetramethyl-1,8-dioxo-2,3,4,5,6,7,8,9-octahydro-1H-xanthen-9-yl)phenyl]-3-methyl-N-(methylsulfonyl)pyridine-2-carboxamide]",42
2,"COc1ccc(-c2cc(C)cc(C(=O)O)n2)c(C)c1C1C2=C(CC(C)(C)CC2=O)OC2=C1C(=O)CC(C)(C)C2 [Example 32, 6-[4-Methoxy-2-methyl-3-(3,3,6,6-tetramethyl-1,8-dioxo-2,3,4,5,6,7,8,9-octahydro-1H-xanthen-9-yl)phenyl]-4-methylpyridine-2-carboxylic acid]",59
3,"COc1ccc(-c2nc(C(=O)O)ccc2C)c(C)c1C1C2=C(CC(C)(C)CC2=O)OC2=C1C(=O)CC(C)(C)C2 [Example 34, 6-[4-Methoxy-2-methyl-3-(3,3,6,6-tetramethyl-1,8-dioxo-2,3,4,5,6,7,8,9-octahydro-1H-xanthen-9-yl)phenyl]-5-methylpyridine-2-carboxylic acid]",58
4,"COc1ccc(-c2ccc(C)c(C(=O)NS(C)(=O)=O)n2)cc1C1C2=C(CC(C)(C)CC2=O)OC2=C1C(=O)CC(C)(C)C2.[K] [Example 35, 6-[4-Methoxy-3-(3,3,6,6-tetramethyl-1,8-dioxo-2,3,4,5,6,7,8,9-octahydro-1H-xanthen-9-yl)phenyl]-3-methyl-N-(methylsulfonyl)pyridine-2-carboxamide potassium salt]",52
5,"COc1ccc(-c2cc(C)cc(C(=O)NS(C)(=O)=O)n2)c(C)c1C1C2=C(CC(C)(C)CC2=O)OC2=C1C(=O)CC(C)(C)C2 [Example 40, 6-[4-Methoxy-2-methyl-3-(3,3,6,6-tetramethyl-1,8-dioxo-2,3,4,5,6,7,8,9-octahydro-1H-xanthen-9-yl)phenyl]-4-methyl-N-(methylsulfonyl)pyridine-2-carboxamide]",38
6,"CC(C)(C)N.COc1ccc(-c2ccc(C)c(C(=O)NS(C)(=O)=O)n2)c(C)c1C1C2=C(CC(C)(C)CC2=O)OC2=C1C(=O)CC(C)(C)C2 [Example 41, 6-[4-Methoxy-2-methyl-3-(3,3,6,6-tetramethyl-1,8-dioxo-2,3,4,5,6,7,8,9-octahydro-1H-xanthen-9-yl)phenyl]-3-methyl-N-(methylsulfonyl)pyridine-2-carboxamide 2-methylpropan-2-amine salt]",44
7,"CC(C)(C)N.COc1ccc(-c2cc(C)cc(C(=O)NS(C)(=O)=O)n2)c(C)c1C1C2=C(CC(C)(C)CC2=O)OC2=C1C(=O)CC(C)(C)C2 [Example 42, 6-[4-Methoxy-2-methyl-3-(3,3,6,6-tetramethyl-1,8-dioxo-2,3,4,5,6,7,8,9-octahydro-1H-xanthen-9-yl)phenyl]-4-methyl-N-(methylsulfonyl)pyridine-2-carboxamide 2-methylpropan-2-amine salt]",44
8,"COc1ccc(-c2cc(C)c(C)c(C(=O)O)n2)c(C)c1C1C2=C(CC(C)(C)CC2=O)OC2=C1C(=O)CC(C)(C)C2 [Example 43, 6-[4-Methoxy-2-methyl-3-(3,3,6,6-tetramethyl-1,8-dioxo-2,3,4,5,6,7,8,9-octahydro-1H-xanthen-9-yl)phenyl]-3,4-dimethylpyridine-2-carboxylic acid]",60
9,"COc1ccc(-c2cc(C)c(C)c(C(=O)NS(C)(=O)=O)n2)c(C)c1C1C2=C(CC(C)(C)CC2=O)OC2=C1C(=O)CC(C)(C)C2 [Example 44, 6-[4-Methoxy-2-methyl-3-(3,3,6,6-tetramethyl-1,8-dioxo-2,3,4,5,6,7,8,9-octahydro-1H-xanthen-9-yl)phenyl]-3,4-dimethyl-N-(methylsulfonyl)pyridine-2-carboxamide]",44
10,"CCc1ccc(-c2ccc(OC)c(C3C4=C(CC(C)(C)CC4=O)OC4=C3C(=O)CC(C)(C)C4)c2)nc1C(=O)O [Example 45, 3-Ethyl-6-[4-methoxy-3-(3,3,6,6-tetramethyl-1,8-dioxo-2,3,4,5,6,7,8,9-octahydro-1H-xanthen-9-yl)phenyl]pyridine-2-carboxylic acid]",42
11,"CCc1ccc(-c2ccc(OC)c(C3C4=C(CC(C)(C)CC4=O)OC4=C3C(=O)CC(C)(C)C4)c2)nc1C(=O)NS(C)(=O)=O [Example 46, 3-Ethyl-6-[4-methoxy-3-(3,3,6,6-tetramethyl-1,8-dioxo-2,3,4,5,6,7,8,9-octahydro-1H-xanthen-9-yl)phenyl]-N-(methylsulfonyl)pyridine-2-carboxamide]",47
12,"COc1ccc(-c2cc3c(c(C(=O)O)n2)CCCC3)c(C)c1C1C2=C(CC(C)(C)CC2=O)OC2=C1C(=O)CC(C)(C)C2 [Example 47, 3-[4-Methoxy-2-methyl-3-(3,3,6,6-tetramethyl-1,8-dioxo-2,3,4,5,6,7,8,9-octahydro-1H-xanthen-9-yl)phenyl]-5,6,7,8-tetrahydroisoquinoline-1-carboxylic acid]",56
13,"COc1ccc(-c2ccc(N)c(C(=O)O)n2)c(C)c1C1C2=C(CC(C)(C)CC2=O)OC2=C1C(=O)CC(C)(C)C2 [Example 48, 3-Amino-6-[4-methoxy-2-methyl-3-(3,3,6,6-tetramethyl-1,8-dioxo-2,3,4,5,6,7,8,9-octahydro-1H-xanthen-9-yl)phenyl]pyridine-2-carboxylic acid]",62
14,"COc1ccc(-c2ccc(N)c(C(=O)NS(C)(=O)=O)n2)c(C)c1C1C2=C(CC(C)(C)CC2=O)OC2=C1C(=O)CC(C)(C)C2 [Example 49, 3-Amino-6-[4-methoxy-2-methyl-3-(3,3,6,6-tetramethyl-1,8-dioxo-2,3,4,5,6,7,8,9-octahydro-1H-xanthen-9-yl)phenyl]-N-(methylsulfonyl)pyridine-2-carboxamide]",34
15,"COc1ccc(-c2ccc(N)c(C(=O)O)n2)cc1C1C2=C(CC(C)(C)CC2=O)OC2=C1C(=O)CC(C)(C)C2 [Example 51, 3-Amino-6-[4-methoxy-3-(3,3,6,6-tetramethyl-1,8-dioxo-2,3,4,5,6,7,8,9-octahydro-1H-xanthen-9-yl)phenyl]pyridine-2-carboxylic acid]",39
16,"COc1ccc(-c2ccc(N)c(C(=O)NS(C)(=O)=O)n2)cc1C1C2=C(CC(C)(C)CC2=O)OC2=C1C(=O)CC(C)(C)C2 [Example 52, 3-Amino-6-[4-methoxy-3-(3,3,6,6-tetramethyl-1,8-dioxo-2,3,4,5,6,7,8,9-octahydro-1H-xanthen-9-yl)phenyl]-N-(methylsulfonyl)pyridine-2-carboxamide]",44
17,"CNc1ccc(-c2ccc(OC)c(C3C4=C(CC(C)(C)CC4=O)OC4=C3C(=O)CC(C)(C)C4)c2C)nc1C(=O)O [Example 53, 6-[4-Methoxy-2-methyl-3-(3,3,6,6-tetramethyl-1,8-dioxo-2,3,4,5,6,7,8,9-octahydro-1H-xanthen-9-yl)phenyl]-3-(methylamino)pyridine-2-carboxylic acid]",64
18,"CNc1ccc(-c2ccc(OC)c(C3C4=C(CC(C)(C)CC4=O)OC4=C3C(=O)CC(C)(C)C4)c2C)nc1C(=O)NS(C)(=O)=O [Example 54, 6-[4-Methoxy-2-methyl-3-(3,3,6,6-tetramethyl-1,8-dioxo-2,3,4,5,6,7,8,9-octahydro-1H-xanthen-9-yl)phenyl]-3-(methylamino)-N-(methylsulfonyl)pyridine-2-carboxamide]",49
19,"COc1ccc(-c2ccnc(CO)n2)c(C)c1C1C2=C(CC(C)(C)CC2=O)OC2=C1C(=O)CC(C)(C)C2 [Example 76, 9-{3-[2-(Hydroxymethyl)pyrimidin-4-yl]-6-methoxy-2-methylphenyl}-3,3,6,6-tetramethyl-3,4,5,6,7,9-hexahydro-1H-xanthene-1,8(2H)-dione]",33

# Same assay, conditions: male C57BL/6J mice, fasted overnight; oral gavage 10 mg/kg; solvent PG:Tween; glucose 3 g/kg orally 30 minutes after compound; area under the curve of blood glucose level relative to control group
row,Compound,Blood glucose lowering rate (%)
1,"COc1ccc(-c2ccnc(C(N)=O)n2)c(C)c1C1C2=C(CC(C)(C)CC2=O)OC2=C1C(=O)CC(C)(C)C2 [Example 75, 4-[4-Methoxy-2-methyl-3-(3,3,6,6-tetramethyl-1,8-dioxo-2,3,4,5,6,7,8,9-octahydro-1H-xanthen-9-yl)phenyl]pyrimidine-2-carboxylic acid amide]",35
